Assay results taken from patent publication US12595279B2, “Modified nucleoside and synthetic methods thereof” (STEMIRNA THERAPEUTICS CO., LTD., priority 2019, dated 2026).

What was measured:
dendritic cells [1] = experiment: Influence of different modification ratios of cytidine on luciferase mRNA expression; type: cell-based, mice; details: for difference of expression at the best modification ratio versus other modification ratios (variance analysis): best ratio: invention 1 80%-100%, invention 4 20%, invention 2 40%, invention 3 5%; for trend of expression with the increase of the modification ratio: cytidine replaced at 0.5% to 100%; for trend of expression with the increase of the modification ratio / modification ratio with the maximum (optimal) expression quantity: FIGS. 4-7; for modification ratio with the maximum (optimal) expression quantity / modification ratio at which the expression quantity is relatively high: luciferase mRNA, part of the cytidine replaced; for modification ratio at which the expression quantity is relatively high: FIGS. 5-7
Method: mRNA of the luciferase in Example 1 was set as an example; a portion of cytidine was replaced with the compounds of the modified cytidine in the present invention having a ratio of 0.5%, 5%, 10%, 20%, 30%, 40%, 50%, 70%, 80% and 90%; and the specific replacement method was as follows: transcription was performed by a transcriptase of in vitro luciferase DNA with the supply of AUCG raw materials and according to a conventional method, where the synthesis method should be controlled and replaced, and then a portion of cytidine in mRNA was replaced according to the above ratio. The influence of the replacement in different ratios on the expression of mRNA was surveyed.

[2] = system: mice dendritic cells (D.2.4 cells); experiment: Expression of 100% cytidine-modified luciferase (FLuc) mRNA, LPP-wrapped, in dendritic cells (luciferase activity, RLU); type: cell-based; details: FIG. 2; for difference of luciferase expression versus the control and m^4C (significance analysis on variance): 100% of cytidine replaced, control = cytidine without modification, P≤0.01, 24 h after transfection
Text: Obtaining of the mRNA of the modified luciferase: DNA sequence of Luc may be in vitro transcribed to mRNA by means of a transcriptase under a conventional reagent condition. During the process of transcription, modified mRNA in varying proportions were obtained according to a ratio of the modified C (cytidine) and non-modified C, where the modified mRNA may contain U-modified mRNA in varying proportions. The sequence was in vitro synthesized into the following modified mRMA, thus forming new modified luciferase. In the above sequence (SEQ NO:1), cytidine was replaced by the modified C* in the present invention; and the following modified C* denotes the expression of the mRNA of 5 monocytidine-modified mRNA having a modification ratio of 100% (namely, all the C were replaced into the following 5 different C* modifications, m^4C (N4-methylcytidine), and m^4Cm (N^4, 2′-O-dimethylcytidine), specifically as shown in Table 1.
1.2.1: Preparation of a phospholipid mixed liquor: phospholipid:DOPE:mPEG2000-DSPE=49:49:2 were dissolved into an ethanol solution. DOPE was purchased from Avanti, mPEG2000-DSPE was purchased from cordenpharma, and PBS was purchased from Invitrogen.
1.2.2: Preparation of mRNA: 1 mL mRNA (mRNA having a concentration of 0.2 mg/mL and total mass of 0.2 mg as shown in Table 2) in each treatment group was respectively sucked up by a BD injector.
1.2.3: Preparation of phospholipid/mRNA: […] and 3 mL phospholipid solution (having a concentration of 12 mg/mL) were respectively sucked up by a BD injector and inserted into a micro-fluidic chip (the microfluidics herein should be a small-sized equipment capable of producing package for nanoparticles); the setup parameters: volume: 9.0 mL; and flow rate ratio: 3:1, total flow rate: 1 mL/min; temperature: 37.0° C., initial amount: 0.35 mL; ending amount: 0.10 mL, thus a phospholipid/mRNA solution was obtained, namely, mRNA particles wrapped by phospholipid and a phospholipid mixed solution were obtained.
Thereby, the wrapped mRNA carrier in each treatment group was obtained.
Experiment reagent: (1) water was added to a harvest buffer (25 ml): 1.25 ml 1 M Tris-HCl(pH7.5), 25 μl 1 M DTT, 250 μl 10% Triton X-100 to 25 ml for storage at 4° C. (2) water was added to an ATP buffer (10 ml): 1.25 ml 1 M Tris-HCl(pH7.5), 250 μl 1 M MgCl2, 24 mg ATP to 10 ml for storage at […] (3) luciferin buffer (36 ml): 10 mg luciferin, 36 ml 5 mM KH2PO4 (pH7.8) was performed for storage at 4° C. (4) PBS: […], 2.68 mMKCl, 10 mM Na2HPO4, 1.76 mM KH2PO4 was performed for storage at 4° C. […]
1.3.6: same volume of cell lysis buffer (100 μl) was successively taken and put to the microcentrifuge tubes in step 5, and mixed evenly immediately, and […] were read on a Luminometer. […]

dendritic cells [3] = experiment: Influence of a 120A Poly(A) tail on the 3′ terminal on expression of modified luciferase mRNA in dendritic cells; type: cell-based, mice; details: 120A tail; luciferase mRNA 100% modified; compared with FIG. 2 (FIG. 3)
Method: 120A was added on a 3′ terminal as a tail, so as to survey the influence of adding Poly(A) on the 3′ terminal on the translation effect, as well as on the expression of the luciferase 100% modified by the inventions 1-4 and control group. The influence on enzyme expression was measured according to the packaging method and cell infection method in Example 1. It can be obviously seen through the comparison of FIG. 2 that the expression was increased both to the modified or non-modified mRNA after adding a Ploy (A) structure on the 3′ terminal.

Compound	difference of expression at the best modification ratio versus other modification ratios (variance analysis) (dendritic cells [1])	trend of expression with the increase of the modification ratio (dendritic cells [1])	modification ratio with the maximum (optimal) expression quantity (dendritic cells [1])	difference of luciferase expression versus the control and m^4C (significance analysis on variance) [2]	change of expression after adding a Poly(A) structure on the 3′ terminal (dendritic cells [3])	modification ratio at which the expression quantity is relatively high (dendritic cells [1])	difference of luciferase expression versus m^4Cm-modified mRNA ([2]; 100% modification, comparator m^4Cm (N^4,2′-O-dimethylcytidine))
NC(N)=Nc1ccn(C2OC(COP(=O)([O-])OP(=O)([O-])OP(=O)([O-])[O-])C(O)C2O)c(=O)n1.[K+].[K+].[K+].[K+] (stereo not shown) [invention 1]	significant difference	increased	80%-100%	highly significant difference	comparatively obvious	–	–
Cc1cn(C2CC(O)C(COP(=O)([O-])OP(=O)([O-])OP(=O)([O-])[O-])O2)c(=O)nc1N=C(N)N.[K+].[K+].[K+].[K+] (stereo not shown) [invention 2]	significant or highly significant differences	gradually increases	40%	highly significant difference	–	20%-40%	no significant difference
Cc1c(O)c(N=C(N)N)nc(=O)n1C1OC(COP(=O)([O-])OP(=O)([O-])OP(=O)([O-])[O-])C(O)C1O.[K+].[K+].[K+].[K+] (stereo not shown) [invention 4]	significant or highly significant differences	gradually increases	20%	highly significant difference	–	20%-40%	–
